Test results reported in a melting point compilation (Tetko et al.; mined from patent text by program, amines drawn as free bases though some values may be those of a salt).

melting point [°C]	SMILES
103 to 105	CCCCCCCC/C=C\c1ccccc1/C=C/C(C)=C/C=C/C(C)=C/C(=O)O
125 to 126	COc1ccc(C=O)cc1OCc1nc(-c2ccco2)oc1C
195 to 197	O=C1N(Cc2cnc(N3CCCCC3)s2)c2ccccc2C12COc1cc3c(cc12)OCO3 (stereo not given)
95 to 97	CCOC(=O)c1cc2cc(-c3ccc(N)cc3)ccc2o1
124	CCCN1CCn2c(=O)[nH]c3cccc(c32)C1C (stereo not given)
155 to 157	CC(C)(Oc1ccc(CCC(=O)c2ccc(-c3ccc(Br)cc3)s2)c(Cl)c1Cl)C(=O)O
163 to 165	CCOCc1nc(N)c(N=O)c(=O)[nH]1
133 to 134	COC(=O)CCn1nc(-c2c(-c3ccccc3)nn3ccccc23)ccc1=O
214 to 216	O=C(CCl)Nc1cc(C(=O)O)cc(OCc2ccccc2)c1C(=O)c1ccccc1
193 to 194	CC(C)N(CCN1C(=O)/C(=N/NC(N)=O)c2ccccc21)Cc1ccccc1
86 to 88	COc1ccc(C(F)(F)F)cc1Nc1ccc(C(F)(F)F)cc1[N+](=O)[O-]
100 to 103	CC1(C)CC(=O)c2c(-c3ccccc3)sc(C#N)c2C1
160 to 162	CCOC(=O)Cc1ccc(NC(=O)C(COS(C)(=O)=O)NS(=O)(=O)c2ccc(I)cc2)cc1 (racemic)
187	CC1=C(CCN(O)C(N)=O)c2cc(F)ccc2/C1=C\c1ccc(S(C)(=O)=O)cc1
115 to 118	COC(=O)c1csc(C(=O)CBr)c1OC(=O)c1ccccc1
129 to 131	COc1cc(OC)c(CN2CCc3cc(OCc4ccccc4)c(OC)cc3C2)c(OC)c1
126 to 127	COc1ccc(C(=O)CN2CCc3cc(OCc4ccccc4)c(OC)cc3C2)cc1OC
110 to 112	Cc1ccc(Cc2cnc(CCCSCc3cc(CN(C)C)ccn3)[nH]c2=O)cn1
168 to 169	CC(C)(C)OC(=O)Nc1ccc(-c2ccc(F)cc2)cc1NC(=O)CC(=O)c1sccc1Cl
50 to 54	CC1(C)C=C(CC(=O)O)C(C)(C)CC1
115 to 117	COc1c(Br)c(CO)c(OC)c2ccccc12
144	CCOc1nn(C(=O)NS(=O)(=O)c2c(Cl)cccc2SC)c(=O)n1C
96 to 97	COC(=O)C(O)NC(=O)OC(C)(C)C (stereo not given)
152	C[C@H]1C[C@@H](Oc2cccc(NC(=O)c3ccc(F)cc3Cl)c2)CCN1C (relative stereo)

melting point [°C]	SMILES
242 to 245	O=C(O)c1cc(F)c(F)cc1Nc1ccnn1-c1ccccn1
87 to 88	CCOC(=O)CCCCc1cccc(-c2nc(=O)c3ccccc3s2)n1
90 to 92	COc1ccnc(N2CCN(C(=O)c3ccsc3)CC2)n1
151	CCOc1ccc2[nH]c(=O)n(C3Cc4ccccc4C3)c2c1
105 to 106	CC(C)Oc1cc(COc2cc(CCC(=O)O)n(C)n2)cc(COc2ccc(Cl)cc2Cl)c1
51 to 54	C=CCOc1nc(SC)nc(NC(C)C)c1[N+](=O)[O-]
186 to 189	CCOC(=O)c1cn(-c2nc(N)c(Cl)cc2F)c2c(Cl)c(F)c(F)cc2c1=O
134 to 136	CCOC(=O)C1=C(C)Nc2ccnc(OC(C)C)c2C1c1cccc2nonc12 (stereo not given)
190 to 191	O=c1c(-c2ccc(Cl)cc2)c[nH]n1-c1ncccn1
149 to 150	Cc1nc(-c2ccc(C(F)(F)F)cc2)sc1COc1ccc(CC(=O)O)cc1
158 to 160	CC(C)(CNc1ccnc2cc(Cl)ccc12)NCc1ccc(Cl)c(C(F)(F)F)c1
218 to 219	Cc1nnc(-c2ccc3occ(-c4ccc(S(C)(=O)=O)c(OC(F)(F)F)c4)c3c2)o1
76 to 77	Nc1cccc(OCCN2CCc3ccccc3C2)c1N
150	COCCOc1ccc(COC(=O)NS(=O)(=O)NCC2CC2)c(Oc2ncc(C(F)(F)F)cc2Cl)c1
216	Nc1cc(Cl)c(S(N)(=O)=O)cc1N
185 to 188	C[C@H]1C(=O)Nc2ccc(Cl)cc2N1C(=O)Oc1ccc(Cl)cc1
176 to 178	O=c1n(CCCN2CCC(n3c(=O)[nH]c4ccccc43)CC2)nc2n1-c1ccccc1OC2
195 to 196	O=C1N(Cc2cccc(C(F)(F)F)n2)c2ccccc2C12COc1cc3c(cc12)OCCO3 (stereo not given)
194 to 196	Cc1nc2cc3c(nc2o1)C(=O)OC3=O
256 to 259	CC1NC(=O)NN=C1c1ccc(O)cc1 (stereo not given)
> 250	CCc1ccc(Nc2nc3cc(NC(=O)c4cc(OC)c(OC)c(OC)c4)ccc3o2)cc1
228 to 231	S=C1NC(c2ccc(Cl)cc2)c2ccccc2C1CCN1CCOCC1 (stereo not given)
100 to 102	CCOC(=O)C(=CNc1ncnc2ccc(N(C(=O)CC(C)(C)C)C(=O)CC(C)(C)C)cc12)C(=O)OCC
179 to 180	O=C1OCCC1n1nc(-c2c(-c3ccccc3)nn3ccccc23)ccc1=O (stereo not given)

melting point [°C]	SMILES
101 to 104	Nc1ccccc1NCC12CC3CC(CC(C3)C1)C2
122 to 123	CCOC(=O)c1ccc2nc3sc(C(C)C)cc3c(=O)n2c1
76 to 79	Cc1ccc(S(=O)(=O)C(C)(C)C(=O)C(C)C)cc1
74 to 75	FC(F)(F)C1(C(F)(F)F)c2ccccc2Oc2ccccc21
175 to 178	O=C1NCCCCC1c1cccc(O)c1 (stereo not given)
122	CC(C)N(Cc1cccs1)S(=O)(=O)N[C@@H](Cc1ccc(NC(=O)c2cc(Cl)cc(Cl)c2)cc1)C(=O)O
79 to 82	O=C(Nc1ccc(-n2nc(C(F)(F)F)cc2Br)cc1)c1ccncc1Cl
220	O=C(NC(=O)c1c(F)cccc1F)Nc1ccc(Cl)c(C(F)(F)F)c1
113 to 115	O=C(O)CCCCCCC(=O)c1cccnc1
260 to 261	Cc1ccc2nc(C3(c4ccc(S(N)(=O)=O)cc4)C=C(C(F)(F)F)NN3)oc2c1 (stereo not given)
222 to 224	CCn1c(=O)ccc2cnc(Nc3ccc(O)cc3)nc21
111	CCCCCC1COc2cc(C3COC(C4COc5c(cc(F)c(C#N)c5F)C4)OC3)c(F)cc2C1 (stereo not given)
130 to 134	CCC12CCC3c4ccc(OC)cc4C(C)CC3C1CCC21OCCO1 (stereo not given)
177 to 179	CCCCC(=N)NC(=O)Nc1ccc(Cl)c(Cl)c1
93 to 94	CC1CC(C)(C)C(O)(CO)C1Cc1ccc(Cl)cc1 (stereo not given)
140 to 142	CCOC(=O)c1cnn(-c2ccccn2)c1S(=O)(=O)NC(=O)Nc1nc(OC)cc(OC)n1
140 to 142	CCn1ncc2c1ncc1c(OCCC(C)C)nc3ncnn3c12
> 300	CNc1nc(NS(=O)(=O)c2ccc(N)cc2)cc(N(C)C)n1
72 to 73	CCOC(=O)C(Cc1cc2cccnc2n(-c2cccc([N+](=O)[O-])c2)c1=O)C(=O)c1ccncc1 (stereo not given)
99 to 100	Fc1ccc2sc(COc3cccc(CBr)c3)nc2c1
198 to 200	O=C1CC(c2cccc(-n3ccnc3)c2)=Nc2ccc(C3CC3)cc2N1
124 to 125	OCc1ccc(OCc2ccc3ccccc3n2)nc1
153	C#CCOC(=O)C1=C(C)N2CCNC2=C(C(=O)OCC)C1c1cccc([N+](=O)[O-])c1 (stereo not given)
75 to 76	Cc1c(-c2ccccc2)oc2c(OCCCCCBr)cccc2c1=O

melting point [°C]	SMILES
100 to 102	COC(=O)c1nn(C2CCCCO2)cc1NC(=O)c1cccc(C)n1 (stereo not given)
162 to 163	c1nc(SC2CCCCC2)c2cc[nH]c2n1
165 to 168	Cc1ccc(-c2ccc(S(C)(=O)=O)cc2)n1-c1ccc(-c2ccoc2)c(Cl)c1
115 to 119	CCCCCCCCN(C[C@H]1CCC[C@H](CN(CCCCCCCC)C(=O)Nc2ccc(N(C)C)cc2)C1)C(=O)Nc1ccc(N(C)C)cc1 (relative stereo)
139 to 141	CCOC(=O)C1=C(C)NC(C#N)=C(C(=O)OCC)C1c1ccco1 (stereo not given)
122 to 123	N#CCc1cccc2c(-c3ccc(C(F)(F)F)cc3)nccc12
158	O=S(=O)(Nc1ccccc1NCCOc1ccc(Cl)cc1)c1ccc(Cl)cc1
69	CCCC(CCC)(CCC)C(N)=O
178 to 179	Nc1ncc2ncn(OC(CO)CCO)c2n1 (stereo not given)
79 to 80	CCC(Oc1c(Br)cc(-c2ccc(-c3c(Cc4ccccc4)oc4ccccc34)cc2)cc1Br)C(=O)O (stereo not given)
100 to 101	N#CCCCCCCn1c(-c2ccccc2)c(-c2ccccc2)n(-c2ccccc2)c1=O
176 to 178	CCOC(=O)C(C#N)C(=O)c1nn(-c2ccccc2)c2c1COc1ccccc1-2 (stereo not given)
162	CCOC(=O)c1cc(-c2ccc(C(F)(F)F)cc2)n[nH]1
188 to 189	Cc1nc2c(-c3ccc(-c4ccccc4)cc3)nc3ccc(F)cc3c2c(=O)o1
87 to 88.5	COC(=O)NC(Cc1ccccc1)C1CC(Cc2ccccc2)=NO1 (stereo not given)
150 to 151	N#CC(=CNc1ccccc1)Cc1ccc2c(c1)OCO2
135 to 138	C[C@H](Nc1ncnc2[nH]cnc12)c1oc2ccccc2c(=O)c1-c1cccc(F)c1
88	CCCCCCCCCCCOc1cccc(C(=O)O)c1
97	CCOC(=O)COc1ccc(Oc2nc(Cl)cc3ccccc23)cc1
104	O=C(O)C1(O)CCCN(Cc2ccccc2)C1 (stereo not given)
190 to 191	Cc1ccc(CS(=O)c2nc3cc4c(cc3[nH]2)CCC4)nc1 (stereo not given)
145	C/C=C/C1CCC2c3ccc(OCC)c(F)c3OC2C1 (stereo not given)
124 to 130	CCOCC1COc2cc(C(=O)O)c(N)cc2O1 (stereo not given)
245 to 248	CCOc1c(C(C)=O)cnc2[nH]ncc12

SMILES	melting point [°C]
COc1cc(C(C)=O)ccc1OCCCCN1C2CCC1CC(c1n[nH]c3cc(F)ccc13)C2 (stereo not given)	148 to 149
CN1CCN(c2nc3ccccc3[nH]2)CC1	222 to 224
NC1N=C(c2ccccc2)c2ccccc2NC1=O (stereo not given)	196 to 197
CCOC(=O)Nc1nc(C)c(-c2nc3ccccc3c(=O)n2-c2ccc(C)cc2)s1	220 to 222
